Assay results taken from patent publication US9649315B2, “Composition useful for treating disorders related to TRPA1” (HYDRA BIOSCIENCES, INC., priority 2008, dated 2017).
pIC50: −log10 of the molar value.

Tests used:
[1] = target: hTRPA1 channel (Homo sapiens, UniProt O75762); assay: Inhibition of TRPA1 channel activity; type: cell-based; conditions: procedure similar to WO 2007/073505; read-out: IC50 against hTRPA1 channel activity
Experimental: Compound 1 was tested using a procedure similar to the procedure outlined in WO 2007/073505.

[2] = system: formalin-induced pain behavior; assay: Formalin-induced pain behavior in rats; type: in vivo, rat; conditions: 50 mg/kg oral, one hour prior to intraplantar formalin (3%), observed for 2 minutes following injection
Experimental: Compound 1 was tested in the formalin-induced pain test reported by Dubuisson et al., Pain 1977 December; 4(2):161-74. The compound was dosed orally in rats (8 animals) at 50 mg/kg, one hour prior to intraplantar formalin (3%) injection. The control group (8 animals) received vehicle (30% Captisol® in water, pH 10). […] The duration of pain behavior in the treated animals was reduced by about 30%, compared to the animals who received vehicle.

[3] = system: AITC-induced pain behavior; assay: AITC-induced pain behavior (automated flinch detecting system) in the rat; type: in vivo; conditions: 50 mg/kg oral gavage
Experimental: Compound 1 was tested in the automated flinch detecting system described by Yaksh et al., J. Appl. Physiol 90: 2386-2402 (2001). A small metal band was loosely placed around each rat's left hind paw. The fasted rats were dosed (50 mg/kg) via oral gavage with Compound 1 (8 animals) or vehicle (8 animals, 30% Captisol® in water, pH 10). The rats were acclimatized in the test chamber prior to allyl isothiocyanate (AITC) administration. AITC was then injected into the paw of each animal, and the animal was promptly returned to the chamber. The number of paw flinches was monitored for 60 minutes. After 10 minutes, animals receiving vehicle flinched a total of about 350 times, while the treated animals flinched about 200 times. After 60 minutes the animals that had received vehicle prior to AITC administration flinched about 1950 times, while the compound pre-treated animals flinched about 1000 times.

Chain of hTRPA1 channel (O75762 whole entry): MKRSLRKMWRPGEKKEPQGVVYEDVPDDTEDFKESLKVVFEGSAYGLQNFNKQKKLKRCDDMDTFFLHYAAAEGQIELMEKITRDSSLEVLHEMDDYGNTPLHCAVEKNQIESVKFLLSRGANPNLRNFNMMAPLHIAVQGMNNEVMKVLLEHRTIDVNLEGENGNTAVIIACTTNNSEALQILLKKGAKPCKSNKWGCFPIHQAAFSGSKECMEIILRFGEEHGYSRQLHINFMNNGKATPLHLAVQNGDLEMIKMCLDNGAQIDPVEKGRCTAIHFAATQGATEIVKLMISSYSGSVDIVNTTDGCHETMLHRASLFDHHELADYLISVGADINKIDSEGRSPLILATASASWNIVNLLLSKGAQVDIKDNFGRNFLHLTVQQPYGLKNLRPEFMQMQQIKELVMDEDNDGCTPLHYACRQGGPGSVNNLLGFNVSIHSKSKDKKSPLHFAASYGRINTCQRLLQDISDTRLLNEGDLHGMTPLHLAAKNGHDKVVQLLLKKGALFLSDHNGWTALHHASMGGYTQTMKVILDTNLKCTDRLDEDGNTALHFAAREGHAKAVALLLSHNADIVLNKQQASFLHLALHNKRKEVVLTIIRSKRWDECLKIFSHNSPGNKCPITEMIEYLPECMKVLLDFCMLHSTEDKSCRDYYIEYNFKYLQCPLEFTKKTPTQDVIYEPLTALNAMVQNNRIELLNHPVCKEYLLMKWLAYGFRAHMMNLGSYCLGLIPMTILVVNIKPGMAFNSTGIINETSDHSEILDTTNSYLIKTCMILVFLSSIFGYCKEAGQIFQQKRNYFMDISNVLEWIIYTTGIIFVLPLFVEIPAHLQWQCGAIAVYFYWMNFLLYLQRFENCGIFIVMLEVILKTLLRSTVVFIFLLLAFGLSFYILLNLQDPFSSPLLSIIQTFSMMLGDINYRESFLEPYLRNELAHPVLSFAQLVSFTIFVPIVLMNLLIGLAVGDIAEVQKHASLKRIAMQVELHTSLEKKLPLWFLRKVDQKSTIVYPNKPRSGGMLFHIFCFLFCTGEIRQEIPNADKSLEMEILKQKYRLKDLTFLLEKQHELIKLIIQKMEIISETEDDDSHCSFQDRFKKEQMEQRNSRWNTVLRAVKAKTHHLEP

SMILES: C[C@H]1CCCN1c1ccc(-c2csc(NC(=O)Cn3cnc4c3c(=O)n(C)c(=O)n4C)n2)cc1F [Compound 1]
- pIC50 [1]: ~8.40
- reduction of duration of pain behavior compared to vehicle [2]: about 30%
- total number of paw flinches after 10 minutes ([3]; fasted rats, AITC injected into paw, after 10 minutes (vehicle about 350)): about 200 times
- total number of paw flinches after 60 minutes ([3]; fasted rats, AITC injected into paw, after 60 minutes (vehicle about 1950)): about 1000 times
- effect on AITC-induced pain behavior ([3]; rats): able to reduce the AITC-induced pain behavior
